# Values joined by “and” are separate entries in the source; they are usually repeats but may differ in a detail not shown here. Identical values can stand only once. Like-named read-outs stand apart in the source and are kept apart here.
# Columns and labels:
# [1] = tested on: M.tb isolates from BALB/c mice after four months of treatment; test: microbe, parasite or virus in culture; assay type: cell-based; details: Mycobacterium tuberculosis, read-out: minimum inhibitory concentration
# [2] = for rifampin area under curve (0–18 h): rifampin 10 mg/kg
# [3] = tested on: wild type H37Rv; test: microbe, parasite or virus in culture; assay type: cell-based; details: Mycobacterium tuberculosis, read-out: minimal inhibitory concentration
# [4] = human, recommended doses; ref Dowty et al., 2014; cited from earlier work
# [5] = Observation of adverse effects in mice during the study period; assay type: in vivo; details: tofacitinib 30 mg/kg/day (the higher dose)
# [6] = tested on: M.tb H37Rv; test: Relapse 3 months after ending treatment, BALB/c mice; assay type: in vivo
# [7] = tested on: JAK tyrosine kinase activity; details: ref Dowty et al., 2014; cited from earlier work
# [8] = tested on: bone marrow-derived macrophages (BMDM) from BALB/c and C3HeB/FeJ mice; assay type: cell-based
SMILES,MIC [1] [µg/mL],"rifampin area under curve (0–18 h) ([2]; mouse serum, co-administered tofacitinib 15 mg/kg) [μg/ml·H]","rifampin area under curve (0–18 h) ([2]; mouse serum, co-administered tofacitinib 22.5 mg/kg) [μg/ml·H]","rifampin area under curve (0–18 h) ([2]; mouse serum, co-administered tofacitinib 30 mg/kg) [μg/ml·H]",MIC [3] [µg/mL],elimination half-life [4],peak tofacitinib serum concentration in mice during PK experiments ([2]; as stated in section 3.3) [µg/mL],"effect of tofacitinib co-administration on the serum concentration of rifampin ([2]; mice, tofacitinib 15, 22.5, 30 mg/kg/day with rifampin 10 mg/kg)","concentration of tofacitinib 2 h after the dose ([2]; mouse serum, with or without co-administration of rifampin, all doses tested) [ng/mL]",average exposure in mice relative to patients with rheumatoid arthritis on 10 mg per day ([2]; tofacitinib 30 mg/kg/day in two divided doses),adverse effects in mice [5],"relapse rate, Std-Rx plus tofacitinib versus Std-Rx alone [6]",concentration of tofacitinib required to inhibit JAK tyrosine kinase activity [7],"effect on cytokine levels (TNF-α, IL-1β) of BMDMs [8]"
NNC(=O)c1ccncc1 [isoniazid],0.04,–,–,–,–,–,–,–,–,–,–,–,–,–
CO[C@H]1/C=C/O[C@@]2(C)Oc3c(C)c(O)c4c(O)c(c(/C=N/N5CCN(C)CC5)c(O)c4c3C2=O)NC(=O)/C(C)=C\C=C\[C@H](C)[C@H](O)[C@@H](C)[C@@H](O)[C@@H](C)[C@H](OC(C)=O)[C@@H]1C [rifampin],0.25,77,93,103,–,–,–,–,–,–,–,–,–,–
C[C@@H]1CCN(C(=O)CC#N)C[C@@H]1N(C)c1ncnc2[nH]ccc12 [tofacitinib],–,–,–,–,> 64,~ 3 h,3,no effect,250 to 500,at least three to five,did not observe any adverse effects,did not differ,100 nM and 31.2 ng/mL,did not alter the cytokine levels

# From PMC4563140 (EBioMedicine, 2015)
